This note sets out measurements from article PMC7558026, “Exploring and applying the substrate promiscuity of a C-glycosyltransferase in the chemo-enzymatic synthesis of bioactive C-glycosides” (Nature Communications, 2020).

Where “and” joins values, the source holds several entries; their conditions need not be identical. Identical values can stand only once. A value given as a limit tells only on which side of the number the result lay.

For one data set, the target named is T1, SGLT2 (Homo sapiens, UniProt P31639).
T1 construct: Human full-length SGLT2 cDNA (NM_003041.3) was synthesized; expressed in transfected cells; host or cells: HEK293, retroviral transduction with pMSCVpuro-SGLT2, puromycin selected
T1 sequence (P31639 1-672): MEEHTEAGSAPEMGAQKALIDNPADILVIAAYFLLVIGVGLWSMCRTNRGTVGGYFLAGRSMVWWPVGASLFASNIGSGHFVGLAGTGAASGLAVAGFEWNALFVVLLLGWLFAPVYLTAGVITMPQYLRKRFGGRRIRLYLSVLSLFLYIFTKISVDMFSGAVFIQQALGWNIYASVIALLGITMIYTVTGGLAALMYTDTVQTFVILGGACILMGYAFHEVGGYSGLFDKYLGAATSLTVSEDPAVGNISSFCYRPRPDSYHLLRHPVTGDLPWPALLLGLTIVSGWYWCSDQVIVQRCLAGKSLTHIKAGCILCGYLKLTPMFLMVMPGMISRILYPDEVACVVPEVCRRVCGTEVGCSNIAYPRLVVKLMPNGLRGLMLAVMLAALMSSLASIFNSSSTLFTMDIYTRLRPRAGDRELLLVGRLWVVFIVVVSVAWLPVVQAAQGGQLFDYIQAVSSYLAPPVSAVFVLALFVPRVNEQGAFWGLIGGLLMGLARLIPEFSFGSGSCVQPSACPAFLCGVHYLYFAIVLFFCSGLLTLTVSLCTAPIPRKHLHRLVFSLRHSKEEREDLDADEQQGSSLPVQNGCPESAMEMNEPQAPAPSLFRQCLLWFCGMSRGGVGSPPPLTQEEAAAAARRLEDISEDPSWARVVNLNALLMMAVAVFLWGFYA
The data set can be described thus: 1-NBDG uptake in HEK293 cells stably expressing SGLT2. It counts as cell-based. As to conditions: HEK293, compound at 10 μM; triplicate; read-out: SGLT2 inhibitory rates.

The nature of the next data set: in vitro. As to conditions: human.
The test system of data set [1] is Influenza A/WSN/33 (H1N1). The data set can be described thus: microbe, parasite or virus in culture. The settings on record: — = no inhibition activity. It counts as cell-based.
The target in another data set is AbCGT (Aloe vera, UniProt A0A7G9P699). The data set can be described thus: Glycosyltransferase activity assay, purified AbCGT (wild type) with aglycon acceptors and UDP-Glc. It counts as biochemical, Aloe barbadensis. The settings on record: fig. 2b, purified AbCGT, redesigned substrates; Reaction-1 to -3.
The test system of another data set is E. coli-AbCGT. The data set can be described thus: Glycosylation by whole-cell biocatalyst E. coli-AbCGT. Type of data set: cell-based. The settings on record: fig. 2c, 30 °C, M9 medium, 12 h, 0.25 mM acceptor; Reaction-1 to -3. As to the method:
The induced cells of E. coli-AbCGT were harvested by centrifugation at 3000 × g for 5 min at 4 °C and washed with ddH2O. Pellets were resuspended by M9 minimal medium containing 2% glucose to appropriate cell density (OD600 = 3.0). Prepared whole-cell biocatalyst of E. coli-AbCGT (500 μL) was then added to 2-mL tubes containing various acceptors at a concentration of 0.25 mM. The mixture was incubated at 30 °C for 12 h with shaking (200 rpm). The reactions were analyzed using GT activity assays as described above. For quantification, three parallel assays were routinely carried out.

Chain of AbCGT (A0A7G9P699 entry or part of it): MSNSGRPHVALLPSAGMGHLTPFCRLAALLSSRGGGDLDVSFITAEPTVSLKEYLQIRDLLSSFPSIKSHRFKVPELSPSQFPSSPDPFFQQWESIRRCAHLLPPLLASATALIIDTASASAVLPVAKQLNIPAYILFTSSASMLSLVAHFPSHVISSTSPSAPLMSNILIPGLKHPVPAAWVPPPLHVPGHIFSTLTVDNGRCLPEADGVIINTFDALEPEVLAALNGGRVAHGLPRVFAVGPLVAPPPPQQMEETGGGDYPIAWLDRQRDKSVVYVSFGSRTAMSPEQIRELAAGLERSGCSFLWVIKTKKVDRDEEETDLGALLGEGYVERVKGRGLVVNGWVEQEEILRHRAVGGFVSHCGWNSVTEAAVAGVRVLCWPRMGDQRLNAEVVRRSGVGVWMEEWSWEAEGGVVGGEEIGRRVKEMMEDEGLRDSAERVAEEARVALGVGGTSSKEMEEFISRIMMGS

Regarding `Oc1cc(O)c(Cc2ccc3nccnc3c2)c(O)c1` [Compound 44], the inhibition at 10 µM on SGLT2 was determined as 0.2%. This molecule had a CC50 in “in vitro” of over 200 µM. Moreover, the inhibition at 20 µM in data set [1] (final concentration 20 μM, read-out: Inhibitory Rates, anti-influenza A virus activity) is under 0%. In addition, the IC50 (in general, the concentration at which inhibition is half-maximal) in data set [1] (read-out: IC50, anti-influenza A virus activity) was over 20 µM. Besides, at AbCGT, the “conversion rates, Purified Enzyme” value is reported as 100%. In the data set on E. coli-AbCGT, the “conversion rates, Whole cells” value was 7.1% and 12.8% and 10.1%.
